Measured values reported in US20230017266A1, “Cyclooxygenase-2 Inhibition for the Treatment of SAA-high Asthma” (THE USA, AS REPRESENTED BY THE SECRETARY, DEPT. OF HEALTH …, priority 2019, published 2023).

How the values were obtained:
PTGS2 mRNA = PTGS2 mRNA levels in CD14+ monocytes cultured with HDL+SAA1 (qRT-PCR); assay type: cell-based, human; conditions: 24 h
Protocol: Quantitative RT-PCR (qRT-PCR). Total RNA was purified using the Direct-Zol™ RNA MiniPrep kit and total RNA (100 ng) was reverse transcribed into cDNA using the High-Capacity cDNA Reverse Transcription Kit (Applied Biosystems, Foster City, Calif.). Polymerase chain reactions (PCR) were performed on duplicate cDNA samples using TaqMan Universal PCR Master Mix, FAM-MGB dye-labeled Taqman® PTGS2 probe (Assay ID Hs00153133_m1, catalog #4331182), and a 7900 Real Time PCR System running Sequence Detector version 2.4 software, all from Applied Biosystems (Foster City, Calif.). Gene expression was quantified relative to expression of 18S rRNA using the control sample as a calibrator to calculate the difference in Ct values (ΔΔCt) and presented as relative mRNA expression. For quantification of miR-155-5p expression, miRNA present in total RNA (10 ng) was converted to cDNA using the microRNA cDNA Reverse Transcription kit (Applied Biosystems, Foster City, Calif.). Polymerase chain reaction (PCR) was performed on duplicate cDNA samples using TaqMan Universal PCR Master Mix, Taqman® MicroRNA Assay for has-miR-155-5p (Assay ID #002623, catalog #4427975), and a 7900HT Fast Real-Time PCR System running Sequence Detector version 2.4 software (ThermoFisher Scientific, Waltham, Mass.). miR-155-5p expression was quantified relative to expression of U6 snRNA using the control sample as calibrator to calculate the difference in Ct values (ΔΔCt) and presented as relative mRNA expression.
miR-155 Inhibition. CD14+ monocytes were suspended in 4D human monocyte Nucleofector™ solution (Amaxa™ P3 Primary Cell 4D-Nucleofector™ X kit, catalog #V4XP-3024, Lonza, Walkersville, Md.) to a final concentration of 2×10^6 cells/100 […] at room temperature. […] CD14^+ monocytes were plated at a density of 4×10^4 cells/well in a 96-well plate to collect culture media for cytokine quantification and the remaining cells were plated in a 24-well plate to isolate total RNA for qRT-PCR. After 72 h, cytokine secretion was quantified by ELISA and mRNA levels were quantified by qRT-PCR.

THP-1 monocytes = test: Cytokine secretion by THP-1 monocytes stimulated with endogenous SAA-high HDL; assay type: cell-based, human; conditions: pre-treated 1 h; for ability of endogenous SAA-high HDL to induce cytokine secretion: SAA-high HDL 24 h
Protocol: HDL Isolation and Analysis. HDL was isolated from plasma by size-exclusion chromatography using two Superose 6 columns in series on an Akta FPLC system (GE Healthcare Life Sciences, Pittsburgh, Pa.), as previously described. FPLC fractions were assayed for cholesterol content (Cholesterol E, catalog #996021611, FUJIFILM Wako Diagnostics USA, Mountain View, Calif.) to identify HDL fractions, which were pooled and concentrated using a 10-kDa exclusion filter (Amicon Ultra Centrifuge Filters, Millipore, Darmstadt, Germany). The content of SAA in purified HDL was quantified using the human SAA ELISA kit, while APOA1 was quantified using the human APOA1 ELISA development kit (Mabtech, Nacka Strand, Sweden). THP-1 monocytes (American Type Culture Collection, Manassas, Va.) were treated with HDL from SAA-high asthmatics (n=16), as well as HDL from asthmatics with the lowest SAA levels (n=16), and the quantity of […], IL-6, TNF-α, and IL-10 secreted into culture medium over 24 h was assayed using Human DuoSet ELISA kits (R&D Systems, Minneapolis, Minn.) and data were acquired using a SpectraMax M2 spectrophotometer (Molecular Devices, San Jose, Calif.).
Stimulation of THP-1 monocytes with endogenous HDL from SAA-high asthmatics and suppression of cytokine secretion were further studied. HDL (4 μg of protein/ml) isolated from plasma from a SAA-high asthmatic (SAA-high HDL) and from a healthy non-asthmatic subject (Normal HDL) were used to stimulate THP-1 monocytes for 24 h. THP-1 monocytes were pre-treated with the FPR2 antagonist, WRW4 or water (40 μM) as the vehicle control, or A438079 or DMSO (10 μM) as the vehicle control, for 1 h prior to stimulation with normal or SAA-high HDL for 24 h. One-way ANOVA with Sidak's multiple comparisons test. ****P<0.0001.
HDL ([…] of protein/ml) isolated from plasma from a SAA-high asthmatic (SAA-high HDL) and from a healthy non-asthmatic subject (Normal HDL) were used to stimulate THP-1 monocytes for 24 h. THP-1 monocytes were pre-treated with BAY-11-7082 ([…] (1 μM) or DMSO (10 μM) as the vehicle control for 1 h, as indicated, prior to stimulation with normal or SAA-high HDL for 24 h. One-way ANOVA with Sidak's multiple comparisons test. ****P<0.0001.
HDL (4 μg of protein/ml) isolated from plasma from a SAA-high asthmatic (SAA-high HDL) and from a healthy non-asthmatic subject (Normal HDL) were used to stimulate THP-1 monocytes for 24 h. A. THP-1 monocytes were pre-treated with celecoxib or DMSO (0.01 μM) as the vehicle control for 1 h, as indicated, prior to stimulation with normal or SAA-high HDL for 24 h. One-way ANOVA with Sidak's multiple comparisons test. ****P<0.0001.

[1] = A438079 10 μM, SAA-high HDL 4 μg of protein/ml 24 h

SMILES: Clc1cccc(-c2nnnn2Cc2cccnc2)c1Cl [A438079]
- HDL+SAA1-mediated increases in PTGS2 mRNA (PTGS2 mRNA; A438079 10 μM): attenuated
- IL-1β secretion induced by endogenous SAA-high HDL (THP-1 monocytes; [1]): inhibited
- IL-6 secretion induced by endogenous SAA-high HDL (THP-1 monocytes; [1]): inhibited
- TNF-α secretion induced by endogenous SAA-high HDL (THP-1 monocytes; [1]): inhibited

SMILES: Cc1ccc(S(=O)(=O)/C=C/C#N)cc1 [BAY 11-7082]
- HDL+SAA1-mediated increases in PTGS2 mRNA (PTGS2 mRNA; BAY-11-7082 10 μM): prevented
- ability of endogenous SAA-high HDL to induce cytokine secretion (THP-1 monocytes; BAY-11-7082 10 μM): abrogate

SMILES: NC(=O)Nc1sc(-c2ccc(F)cc2)cc1C(N)=O [TPCA1]
- HDL+SAA1-mediated increases in PTGS2 mRNA (PTGS2 mRNA; TPCA-1 1 μM): prevented
- ability of endogenous SAA-high HDL to induce cytokine secretion (THP-1 monocytes; TPCA-1 1 μM): abrogate
